Experimental data from ChEMBL document CHEMBL5154820 (Eur J Med Chem, 2022).
pIC50: −log10 of the molar value. The source made the active and inactive calls. No cut-off for these calls is given here.

Assays:
SiHa = assay: Antiproliferation activity against human SiHa cells assessed as reduction in cell growth measured after 48 to 72 hrs by CCK-8 assay; type: functional, cell-based
[1] = Antiproliferation activity against human MS751 cells assessed as reduction in cell growth measured after 48 to 72 hrs by CCK-8 assay; type: functional, cell-based
HeLa = assay: Antiproliferation activity against human HeLa cells assessed as reduction in cell growth measured after 48 to 72 hrs by CCK-8 assay; type: functional, cell-based
Tubulin = Tubulin (Sus scrofa, UniProt P02554+P02550); assay: Inhibition of pig brain tubulin polymerization by spectrophotometeric analysis; design: species or system Sus scrofa domesticus
[2] = Retention time of the compound; type: physicochemical
Bos taurus = species: Bos taurus; assay: Inhibition of calf brain tubulin polymerization upto 50 uM measured after 40 mins by spectrophotometric analysis
A549 = assay: Antiproliferation activity against human A549 cells assessed as reduction in cell growth; type: functional, cell-based
HCT-116 = assay: Antiproliferation activity against human HCT-116 cells assessed as reduction in cell growth; type: functional, cell-based
[3] = target: T1, Tubulin beta (Homo sapiens) (UniProt P68371+Q9H4B7+Q13509+P04350+Q3ZCM7+P07437+Q13885+Q9BVA1+Q9BUF5+A6NNZ2); assay: Binding affinity to beta-tubulin colchicine binding site in human HeLa cells assessed as decrease of adduct formation by measuring gray value measured at 25 uM incubated for 2 hrs followed by addition of EBI measured after 1.5 hrs by EBI competition based Western blotting analysis; type: cell-based; details: time 3.5 hrs
[4] = target: T1, Tubulin beta (Homo sapiens); assay: Binding affinity to beta-tubulin colchicine binding site in human HeLa cells assessed as decrease of adduct formation by measuring gray value measured at 5 uM incubated for 2 hrs followed by addition of EBI measured after 1.5 hrs by EBI competition based Western blotting analysis; type: cell-based; details: time 3.5 hrs

Compound	pIC50 (HeLa)	IC50 (Tubulin) [nM]	pIC50 (SiHa)	pIC50 [1]	further results
COc1cc2c(c(OC)c1OC)-c1ccc(OC)c(=O)cc1[C@@H](NC(C)=O)CC2 [COLCHICINE]	7.38		7.35	7.46	
COc1cc(-c2ncncc2-c2ccc(C(=O)N(C)C)cc2)cc(OC)c1OC	6.10		4.69	5.86	
COc1ccc(-c2cncnc2-c2cc(OC)c(OC)c(OC)c2)cc1	5.94	71200	5.55	5.89	
CNC(=O)c1ccc(-c2cncnc2-c2cc(OC)c(OC)c(OC)c2)cc1	5.83		4.96	4.88	
COc1cc(-c2ncncc2-c2ccc3c(c2)OCO3)cc(OC)c1OC	5.94		5.27	5.87	
COc1cc(-c2ncncc2-c2cccc3ccccc23)cc(OC)c1OC					Activity (Bos taurus): Active; pIC50 (A549): 5.60; pIC50 (HCT-116): 5.60
COc1cc(-c2ncncc2-c2ccc(OC(C)C)cc2)cc(OC)c1OC	5.08		5.00	4.47	
CCOc1ccc(-c2cncnc2-c2cc(OC)c(OC)c(OC)c2)cc1C(F)(F)F	6.10	> 100000	4.70	4.60	
CC[C@]1(O)C[C@H]2CN(CCc3c([nH]c4ccccc34)[C@@](C(=O)OC)(c3cc4c(cc3OC)N(C=O)[C@H]3[C@@](O)(C(=O)OC)[C@H](OC(C)=O)[C@]5(CC)C=CCN6CC[C@]43[C@@H]65)C2)C1					Activity [3]: 0.98; Activity [4]: 1.12
COc1cc(-c2ncncc2-c2ccc3cc[nH]c3c2)cc(OC)c1OC	6.11	62800	5.66	5.96	
COc1cc(-c2ncncc2-c2ccc(C(N)=O)cc2)cc(OC)c1OC	< 4.00		< 4.00	< 4.00	
COc1cc(-c2ncncc2-c2ccc(B(O)O)cc2)cc(OC)c1OC	5.40		4.76	4.49	
COc1cc(-c2ncncc2-c2ccc(OCC(F)(F)F)cc2)cc(OC)c1OC	4.99		4.48	5.05	

Now from value to compound, other results behind:

pIC50 (HeLa)	IC50 (Tubulin) [nM]	Compound	pIC50 (SiHa)	pIC50 [1]	further results
6.66	9300	COc1cc(-c2ncncc2-c2ccc(SC)cc2)cc(OC)c1OC	6.25	6.89	
6.30	29900	COc1ccc(-c2cncnc2-c2cc(OC)c(OC)c(OC)c2)cc1F	5.48	5.96	
6.60	3700	CCOc1ccc(-c2cncnc2-c2cc(OC)c(OC)c(OC)c2)cc1	6.19	6.66	
6.33	17100	CCOc1ccc(-c2cncnc2-c2cc(OC)c(OC)c(OC)c2)cc1F	6.10	6.12	
6.49	53100	COc1ccc(-c2cncnc2-c2cc(OC)c(OC)c(OC)c2)cc1Cl	5.88	6.10	Retention_time [2]: 2.23 min
6.33	63700	COc1ccc(-c2cncnc2-c2cc(OC)c(OC)c(OC)c2)nc1	5.76	6.08	
6.55	13400	COc1ccc(-c2cncnc2-c2cc(OC)c(OC)c(OC)c2)cc1O	5.56	6.08	
6.43		CCSc1ccc(-c2cncnc2-c2cc(OC)c(OC)c(OC)c2)cc1	5.99	5.81	
6.30		COc1cc(-c2ncncc2-c2ccc(Br)cc2)cc(OC)c1OC	5.53	5.55	
6.19	> 100000	CCOC(=O)Oc1cc(-c2cncnc2-c2cc(OC)c(OC)c(OC)c2)ccc1OC	5.72	6.11	
